Test systems include NCI-H226; MOLT-4; OVCAR-5; ACHN; EKVX; A549; RPMI-8226; M14; UO-31; Hs-578T; SK-OV-3; SNB-19; SK-MEL-28; SF-539; HCC 2998; KM12; BT-549; CAKI-1; T47D; MDA-MB-231.
What all share (assay): NCI-60 cell line screen, 48 h

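Cells were grown in 96-well plates and exposed to each compound for 48 hours at five concentrations; endpoints were interpolated linearly between bracketing concentrations, or set to the highest concentration if not reached. Here, GI50 denotes the concentration required for 50% inhibition of growth.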 Calls of active or inactive are those of the source. No stated cut-off is given here; in the data, active = GI50 up to about 1.1 µM and inactive = higher. Some results are limits rather than exact numbers.

With `COC(=O)c1csc(-c2nc(CCNC(=O)OC(C)(C)C)sc2Br)n1`, the GI50 in the experiment on NCI-H226, in the experiment on MOLT-4, in the experiment with OVCAR-5, with ACHN, in the experiment with EKVX and with A549 was > 100 µM (inactive) each time. Further, the GI50 in the experiment on RPMI-8226 was 99.3 µM (inactive); in the experiment on M14 it was > 100 µM (inactive); in the experiment on UO-31, > 100 µM (inactive); with Hs-578T, > 100 µM (inactive); in the experiment with SK-OV-3 it was > 100 µM (inactive); with SNB-19, > 100 µM (inactive). For the same compound, the GI50 in the experiment on SK-MEL-28, in the experiment on SF-539, in the experiment on HCC 2998, with KM12 and in the experiment with BT-549 was > 100 µM (inactive) each time.

Take `COc1ccccc1C#C/C=C\C#Cc1ccccc1C#N`: the GI50 was 0.268 µM (active) with MOLT-4; 39.2 µM (inactive) in the experiment with OVCAR-5; 13.9 µM (inactive) in the experiment on ACHN; 3.72 µM (inactive) with CAKI-1; 5.94 µM (inactive) with EKVX; 6.89 µM (inactive) with A549. Also, the GI50 is 6.08 µM (inactive) in the experiment with M14; 10.9 µM (inactive) in the experiment with UO-31; 25.9 µM (inactive) with Hs-578T; 39.8 µM (inactive) in the experiment on SK-OV-3; 37.8 µM (inactive) in the experiment on SNB-19; 34.2 µM (inactive) with SK-MEL-28. The GI50 is 18.6 µM (inactive) in the experiment on SF-539, 5.86 µM (inactive) in the experiment with T47D, 6.19 µM (inactive) with HCC 2998 and 6.37 µM (inactive) in the experiment on KM12.

Take `CC1NOC(NS(=O)(=O)c2ccc(/N=N/c3c(O)c(C(=O)O)cc4ccccc34)cc2)C1C` (stereo not given): the GI50 in the experiment with NCI-H226, with MDA-MB-231, in the experiment on MOLT-4, in the experiment with OVCAR-5, in the experiment on ACHN and with CAKI-1 was > 100 µM (inactive) throughout. Besides, the GI50 was > 100 µM (inactive) in the experiment with EKVX; > 100 µM (inactive) in the experiment with A549; > 100 µM (inactive) in the experiment on RPMI-8226; > 100 µM (inactive) in the experiment with M14; 55 µM (inactive) in the experiment with UO-31; > 100 µM (inactive) in the experiment on Hs-578T. Further, the GI50 in the experiment with SK-OV-3 is > 100 µM (inactive); in the experiment on SNB-19, 59.2 µM (inactive); in the experiment on SK-MEL-28, > 100 µM (inactive); in the experiment with SF-539 it was > 100 µM (inactive); in the experiment with HCC 2998, > 100 µM (inactive); with KM12, 57.8 µM (inactive). Moreover, the GI50 in the experiment with BT-549 is > 100 µM (inactive).

Turning to `CCOC(CN=C=S)OCC`, the GI50 in the experiment with NCI-H226, with MDA-MB-231, in the experiment with MOLT-4, in the experiment on ACHN, in the experiment with CAKI-1 and with EKVX was > 10 µM (inactive) throughout. Also, the GI50 was > 10 µM (inactive) with A549; 3.77 µM (inactive) in the experiment on RPMI-8226; > 10 µM (inactive) with M14; > 10 µM (inactive) in the experiment with UO-31; > 10 µM (inactive) with Hs-578T; > 10 µM (inactive) in the experiment with SK-OV-3. The GI50 in the experiment with SNB-19, with SK-MEL-28, in the experiment with SF-539, with T47D, in the experiment with HCC 2998 and in the experiment on KM12 was > 10 µM (inactive) each time.

As for `C/C=C\C(CC(=O)O)CC(=O)NCCC1CN(S(=O)(=O)C(F)(F)F)c2ccccc21` (stereo not given), the GI50 in the experiment with MDA-MB-231, in the experiment on MOLT-4, with OVCAR-5, in the experiment on ACHN, with CAKI-1 and in the experiment on EKVX was > 100 µM (inactive) in each case. Also, the GI50 with A549, with RPMI-8226, in the experiment on M14, in the experiment on UO-31, in the experiment on Hs-578T and in the experiment on SK-OV-3 was > 100 µM (inactive) in each case. In addition, the GI50 with SNB-19, with SK-MEL-28, in the experiment on HCC 2998, in the experiment on KM12 and with BT-549 was > 100 µM (inactive) in each case.

For `CC1(C)C(O)C[C@]23CCC[C@](C)(C[C@@H](O)C12)C3` (stereo not given in full), the GI50 with NCI-H226, in the experiment with MOLT-4, in the experiment with OVCAR-5, in the experiment on ACHN, in the experiment with CAKI-1 and in the experiment with EKVX was > 100 µM (inactive) each time. The GI50 is 38.2 µM (inactive) with A549; > 100 µM (inactive) in the experiment on RPMI-8226; > 100 µM (inactive) in the experiment on M14; > 100 µM (inactive) with UO-31; > 100 µM (inactive) in the experiment with Hs-578T; > 100 µM (inactive) in the experiment with SK-OV-3. The GI50 in the experiment with SNB-19, with SK-MEL-28, with KM12 and in the experiment on BT-549 was > 100 µM (inactive) in each case.

For `CC(=O)C1C(=O)C(=O)N(c2ccc([N+](=O)[O-])cc2Cl)C1=O` (stereo not given), the GI50 is > 100 µM (inactive) in the experiment on NCI-H226; > 100 µM (inactive) in the experiment with MDA-MB-231; 45.6 µM (inactive) in the experiment on MOLT-4; > 100 µM (inactive) with OVCAR-5; > 100 µM (inactive) in the experiment with ACHN; > 100 µM (inactive) in the experiment on CAKI-1. For the same compound, the GI50 in the experiment with EKVX is > 100 µM (inactive); in the experiment with A549, > 100 µM (inactive); in the experiment with M14, > 100 µM (inactive); with UO-31, 56.1 µM (inactive); in the experiment on Hs-578T, > 100 µM (inactive); in the experiment on SK-OV-3, > 100 µM (inactive). Moreover, the GI50 in the experiment with SNB-19, in the experiment with SK-MEL-28, in the experiment with SF-539, in the experiment on HCC 2998, in the experiment with KM12 and with BT-549 was > 100 µM (inactive) in each case.

Take `COc1cccc(O)c1-c1cc(=O)c2c(O)c(OC)c(OC)c(OC)c2o1` [SKULLCAPFLAVONE II]: the GI50 was 47.2 µM (inactive) in the experiment with NCI-H226; 41 µM (inactive) in the experiment on MDA-MB-231; 29.2 µM (inactive) in the experiment on MOLT-4; 50.9 µM (inactive) in the experiment on OVCAR-5; 38.9 µM (inactive) in the experiment on ACHN; 22.8 µM (inactive) in the experiment with CAKI-1. In addition, the GI50 in the experiment with EKVX was 32.7 µM (inactive); in the experiment with A549, 29 µM (inactive); in the experiment on RPMI-8226 it was 18.7 µM (inactive); in the experiment with M14, 23.5 µM (inactive); in the experiment on UO-31 it was 25.2 µM (inactive); in the experiment on Hs-578T, 35.9 µM (inactive). Besides, the GI50 with SK-OV-3 was 28.4 µM (inactive); in the experiment with SNB-19, 29.2 µM (inactive); in the experiment with SK-MEL-28 it was 35.8 µM (inactive); with SF-539 it was 36.8 µM (inactive); in the experiment with HCC 2998 it was 7.59 µM (inactive); with KM12, 12 µM (inactive). Also, in the experiment with BT-549, the GI50 was 27.2 µM (inactive).
